{"source": "ChEMBL document CHEMBL1201862", "about": "“PubChem BioAssay data set” (2004)", "key": {"HEK293 [1]": {"test_system": "HEK293", "assay": "NOD1 signaling inhibitors, primary screen, cell-based, luminescence, uHTS (AID 1578)", "assay_type": "functional", "settings": "Homo sapiens"}, "HEK293 [2]": {"test_system": "HEK293", "assay": "cells", "assay_type": "functional, cell-based", "settings": "Homo sapiens"}, "HEK293 [3]": {"test_system": "HEK293", "assay": "cells", "assay_type": "functional, cell-based", "settings": "Homo sapiens", "remark": "listed apart in the source"}, "[4]": {"target": "Nucleotide-binding oligomerization domain-containing protein 2 (Homo sapiens, UniProt Q9HC29)", "assay": "NOD2 signaling inhibitors, cell-based, luminescence, uHTS, HEK293 (AID 1566)", "assay_type": "functional"}, "HEK293 [5]": {"test_system": "HEK293", "assay": "NOD2 signaling inhibitors in MDP-stimulated cells, cell-based, uHTS, luminescence (AID 2001)", "assay_type": "functional", "settings": "Homo sapiens"}, "HEK293 [6]": {"test_system": "HEK293", "assay": "cells", "assay_type": "functional, cell-based", "settings": "Homo sapiens", "remark": "listed apart in the source"}, "[7]": {"assay": "Shn3 3'UTR reporter inhibitors, dose response, cell-based, Clone20 osteoblasts, firefly luciferase, cherry-picked (AID 624132)", "assay_type": "functional"}, "[8]": {"assay": "HepG2 cell cytotoxicity, dose response, cytotoxicity control for Shn3 inhibitor project, CellTiter-Glo, cherry-picked (AID 624134)", "assay_type": "functional, cell-based"}, "[9]": {"assay": "control 3'UTR Renilla luciferase suppression, dose response, counter-screen for Shn3 inhibitor project, cell-based, Clone20-Shn3RL, cherry-picked (AID 624133)", "assay_type": "functional"}, "Estrogen receptor": {"target": "T1, Estrogen receptor (Homo sapiens, UniProt P03372)", "T1 sequence (P03372 whole entry)": "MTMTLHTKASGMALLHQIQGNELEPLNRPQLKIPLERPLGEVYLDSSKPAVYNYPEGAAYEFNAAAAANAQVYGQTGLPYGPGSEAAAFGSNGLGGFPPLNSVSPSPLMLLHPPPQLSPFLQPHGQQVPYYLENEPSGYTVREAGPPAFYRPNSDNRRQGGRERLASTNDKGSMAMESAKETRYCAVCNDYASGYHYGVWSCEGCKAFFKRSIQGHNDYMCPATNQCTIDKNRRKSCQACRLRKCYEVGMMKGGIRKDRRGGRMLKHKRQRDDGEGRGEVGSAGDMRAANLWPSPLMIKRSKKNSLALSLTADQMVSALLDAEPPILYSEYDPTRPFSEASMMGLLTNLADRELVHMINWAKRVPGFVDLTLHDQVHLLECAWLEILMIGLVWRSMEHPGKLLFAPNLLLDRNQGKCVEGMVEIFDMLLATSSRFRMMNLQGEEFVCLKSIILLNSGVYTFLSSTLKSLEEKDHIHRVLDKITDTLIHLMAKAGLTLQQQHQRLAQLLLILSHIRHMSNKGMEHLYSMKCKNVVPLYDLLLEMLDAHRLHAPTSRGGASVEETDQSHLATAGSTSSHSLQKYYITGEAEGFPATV"}, "[10]": {"target": "T2, Replicative DNA helicase DnaB (Mycobacterium tuberculosis, UniProt P9WMR3)", "T2 sequence (P9WMR3 whole entry)": "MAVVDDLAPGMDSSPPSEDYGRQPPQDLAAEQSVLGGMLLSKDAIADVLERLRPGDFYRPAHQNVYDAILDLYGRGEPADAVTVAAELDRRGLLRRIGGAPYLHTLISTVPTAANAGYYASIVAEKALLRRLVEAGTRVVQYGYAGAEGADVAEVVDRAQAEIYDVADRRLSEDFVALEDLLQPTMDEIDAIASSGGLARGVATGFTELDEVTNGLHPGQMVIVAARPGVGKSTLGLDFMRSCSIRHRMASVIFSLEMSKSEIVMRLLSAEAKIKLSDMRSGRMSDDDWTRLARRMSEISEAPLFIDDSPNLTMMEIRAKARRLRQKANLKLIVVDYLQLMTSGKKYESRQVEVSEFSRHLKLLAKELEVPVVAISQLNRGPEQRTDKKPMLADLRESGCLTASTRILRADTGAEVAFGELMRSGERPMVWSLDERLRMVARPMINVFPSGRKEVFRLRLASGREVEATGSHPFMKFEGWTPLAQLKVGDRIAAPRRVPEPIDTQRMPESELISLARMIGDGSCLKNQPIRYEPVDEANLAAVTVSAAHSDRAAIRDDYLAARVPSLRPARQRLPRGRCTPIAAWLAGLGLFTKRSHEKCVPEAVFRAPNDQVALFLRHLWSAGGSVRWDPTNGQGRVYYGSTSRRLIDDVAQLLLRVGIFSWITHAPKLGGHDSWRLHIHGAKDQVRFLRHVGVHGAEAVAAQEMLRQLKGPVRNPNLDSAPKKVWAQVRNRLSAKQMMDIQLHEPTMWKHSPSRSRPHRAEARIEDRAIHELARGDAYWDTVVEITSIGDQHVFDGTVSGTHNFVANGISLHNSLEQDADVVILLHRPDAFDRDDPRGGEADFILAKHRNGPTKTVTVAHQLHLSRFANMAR", "assay": "DnaB intein splicing inhibitors, dose response, biochemical, cell-free fluorescence (AID 449749)", "assay_type": "functional"}, "Protein RecA": {"target": "T3, Protein RecA (Mycobacterium tuberculosis, UniProt P9WHJ3)", "T3 sequence (P9WHJ3 whole entry)": "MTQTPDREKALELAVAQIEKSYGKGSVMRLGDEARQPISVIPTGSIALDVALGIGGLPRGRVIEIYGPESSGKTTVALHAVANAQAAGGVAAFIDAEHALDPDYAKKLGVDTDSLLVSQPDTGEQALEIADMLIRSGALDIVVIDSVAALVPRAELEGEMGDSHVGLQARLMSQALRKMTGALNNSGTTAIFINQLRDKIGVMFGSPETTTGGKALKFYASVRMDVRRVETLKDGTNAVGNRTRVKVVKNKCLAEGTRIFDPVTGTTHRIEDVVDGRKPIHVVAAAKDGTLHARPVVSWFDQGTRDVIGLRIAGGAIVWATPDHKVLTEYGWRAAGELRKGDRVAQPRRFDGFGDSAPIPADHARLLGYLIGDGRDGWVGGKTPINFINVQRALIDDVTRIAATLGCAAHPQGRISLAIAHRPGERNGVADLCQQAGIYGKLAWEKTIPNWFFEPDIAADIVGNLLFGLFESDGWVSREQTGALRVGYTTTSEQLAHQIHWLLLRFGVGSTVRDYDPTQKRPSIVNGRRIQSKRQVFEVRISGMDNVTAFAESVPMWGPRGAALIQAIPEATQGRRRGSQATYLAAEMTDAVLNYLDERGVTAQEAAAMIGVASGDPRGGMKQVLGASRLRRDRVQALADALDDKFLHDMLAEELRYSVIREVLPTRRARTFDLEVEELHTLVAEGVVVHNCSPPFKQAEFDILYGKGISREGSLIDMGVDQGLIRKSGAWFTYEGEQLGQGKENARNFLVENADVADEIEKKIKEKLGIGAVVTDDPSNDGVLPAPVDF", "assay": "Fluorescence Cell-Free Homogeneous Dose Retest to Identify Inhibitors of RecA-Intein Splicing Activity. [Related pubchem assays (depositor defined):AID2097, AID2223, AID489010, AID492950]", "assay_type": "functional"}, "[11]": {"test_system": "Streptococcus sp. 'group A'", "assay": "growth inhibition of control SK(-) GAS strain, dose response, counter-screen for streptokinase expression inhibitor project, luminescence, kanamycin, BacTiterGlo, confirmation (AID 1900)", "assay_type": "functional, organism-based"}, "Streptokinase A": {"target": "T4, Streptokinase A (Streptococcus pyogenes serotype M1, UniProt P10520)", "T4 sequence (P10520 whole entry)": "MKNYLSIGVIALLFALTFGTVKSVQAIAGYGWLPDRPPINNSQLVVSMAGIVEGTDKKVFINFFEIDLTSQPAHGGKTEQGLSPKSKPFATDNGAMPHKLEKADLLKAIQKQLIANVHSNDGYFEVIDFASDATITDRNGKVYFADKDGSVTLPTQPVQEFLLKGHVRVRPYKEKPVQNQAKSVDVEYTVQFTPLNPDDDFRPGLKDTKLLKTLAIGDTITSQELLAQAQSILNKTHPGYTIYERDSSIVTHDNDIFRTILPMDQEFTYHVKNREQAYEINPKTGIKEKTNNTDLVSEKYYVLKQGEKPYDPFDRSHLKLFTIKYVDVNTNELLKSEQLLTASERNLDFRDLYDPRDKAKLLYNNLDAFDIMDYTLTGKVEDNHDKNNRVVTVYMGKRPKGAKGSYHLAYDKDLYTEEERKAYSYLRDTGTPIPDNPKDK", "assay": "S. pyogenes streptokinase expression inhibitors, potency, dose response, plasminogen activation absorbance, OD405 (AID 1914);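 further: secreted streptokinase activity via plasminogen activation per viability signal from cell pellet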", "assay_type": "functional, Streptococcus pyogenes M1 GAS"}, "Streptococcus": {"test_system": "Streptococcus", "assay": "Group A Streptococcus viability loss, dose response, counter-screen for streptokinase expression inhibitor project, luminescence, BacTiterGlo (AID 1915);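 further: potency for reduction of bacterial viability or growth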", "assay_type": "functional, organism-based"}, "[12]": {"target": "G-protein coupled receptor 55 (Homo sapiens, UniProt Q9Y2T6)", "assay": "GPR55 agonists via beta-arrestin recruitment, primary screen, imaging, U2OS cells, beta-arrestin-GFP redistribution (AID 1961)", "assay_type": "functional"}, "Troponin, cardiac muscle": {"target": "Troponin, cardiac muscle (Homo sapiens, UniProt P19429+P45379+P63316)", "assay": "Fluorescence-based biochemical high throughput dose response assay for activators of the calcium sensitivity of cardiac Regulated Thin Filaments (RTF). [Related pubchem assays (depositor defined):AID493008, AID493018, AID504382, AID504383]", "assay_type": "protein-complex assay"}, "[13]": {"assay": "A Cell Based Secondary Assay To Explore Cytotoxicity of Compounds that Sensitize Mycobacterium Tuberculosis to Beta-Lactam Antibiotics.", "assay_type": "functional"}, "[14]": {"assay": "THP-1 cell cytotoxicity, dose response, cytotoxicity control for Vif-APOBEC3G degradation inhibitor project, THP-1 cells (AID 1117359)", "assay_type": "functional", "settings": "Human immunodeficiency virus 1, THP-1"}}, "note": "The source made the active and inactive calls.", "data": [{"smiles": "Cc1nc2ccc(NC(=O)c3cccc(S(=O)(=O)N(C)c4ccccc4)c3)cc2s1", "values": [{"measurement": "EC50", "setting": "HEK293 [1]", "result": "7.57 µM (active)"}, {"measurement": "IC50", "setting": "HEK293 [2]", "result": "6.11 µM (active)"}, {"measurement": "IC50", "setting": "HEK293 [3]", "result": "9.65 µM (active)"}, {"measurement": "EC50", "setting": "[4]", "result": "7.35 µM (active)"}, {"measurement": "IC50", "setting": "HEK293 [5]", "result": "5.24 µM (active)"}, {"measurement": "IC50", "setting": "HEK293 [6]", "result": "15.2 µM (active)"}, {"measurement": "AC50", "setting": "[7]", "result": "7.6 µM (active)"}, {"measurement": "AC50", "setting": "[8]", "result": "58.6 µM (active)"}, {"measurement": "AC50", "setting": "[9]", "result": "12.8 µM (active)"}]}, {"smiles": "O=C(Oc1ccc(N2C(=O)CCC2=O)cc1)c1ccco1", "values": [{"measurement": "IC50", "setting": "Estrogen receptor", "result": "> 50 µM (not active)"}, {"measurement": "AC50", "setting": "[10]", "result": "0.351 µM (inconclusive)"}, {"measurement": "EC50", "setting": "Protein RecA", "result": "0.388 µM (active)"}]}, {"smiles": "CCN(CC)S(=O)(=O)c1cccc(C(=O)Nc2nc3cc4c(cc3s2)OCCO4)c1", "values": [{"measurement": "EC50", "setting": "HEK293 [1]", "result": "3.29 µM (active)"}, {"measurement": "EC50", "setting": "[11]", "result": "1.08 µM (active)"}, {"measurement": "IC50", "setting": "HEK293 [2]", "result": "4.3 µM (active)"}, {"measurement": "EC50", "setting": "Streptokinase A", "result": "> 150 µM (not active)"}, {"measurement": "IC50", "setting": "HEK293 [3]", "result": "9.78 µM (active)"}, {"measurement": "EC50", "setting": "[4]", "result": "4.53 µM (active)"}, {"measurement": "IC50", "setting": "HEK293 [5]", "result": "3.47 µM (active)"}, {"measurement": "IC50", "setting": "HEK293 [6]", "result": "> 20 µM (inactive)"}, {"measurement": "EC50", "setting": "Streptococcus", "result": "7.62 µM (active)"}]}, {"smiles": "O=CN1CCN(c2ncnc3c2nnn3Cc2c(F)cccc2Cl)CC1", "values": [{"measurement": "EC50", "setting": "[12]", "result": "12.7 µM (inactive)"}]}, {"smiles": "C[C@@H](C(=O)N1CCNCC1)n1cc(CCCN=C(N)N)nn1", "values": [{"measurement": "EC50", "setting": "Troponin, cardiac muscle", "result": "> 71.5 µM (inactive)"}]}, {"smiles": "COc1cccc(/C=N/NC(=O)c2cnccn2)c1O", "values": [{"measurement": "CC50", "setting": "[13]", "result": "> 40 µM (active)"}, {"measurement": "CC50", "setting": "[14]", "result": "> 40 µM (active)"}]}]}
